Legend:
Pseudom.Aer. ATCC 1014 = experiment: M.I.C. in vitro, gram- Pseudom. Aer. (Table 1); assay type: cell-based, Pseudomonas Aeruginosa; settings: for MIC: Pseudomonas aeruginosa
Experimental: (§1) The method for evaluating the activity in vitro against bacteria, fungi and protozoa consists in introducing calculated quantities of the substance, the activity of which it is desired to test, into culture media already inoculated with a predetermined number of test germs.
(§2) After 24 or 48 hours of incubation at 30° or 37° C., according to the micro-organism being tested, it is possible to evaluate the growth of the same in the culture broth; in this manner the minimum concentration (M.I.C.) which inhibits the growth of the micro-organisms in vitro is determined.
(§3) In table 1 there are recorded the M.I.C. values in γ/ml of the products subject of the present invention, against certain gram+ and gram- bacterial strains, some of which are pathogenic towards human beings.

[1] = tested on: Staphylococcus Aureus Tour; experiment: Speed of sterilising action, Staphylococcus Aureus (Table 3); assay type: cell-based
Experimental: (§4) The strains, inoculants, culture broths and experimental methods are as already seen for calculating the M.I.C. in vitro. The antimicrobic substances were tested at concentrations of 0.1, 0.25, 0.5 and 1 g/l, the contact times taken into consideration are 0, 1, 2.5, 5, 7.5, 10, 15, 30 and 60 minutes.
(§5) The samples which at the 7th day of incubation still had no growth of micro-organisms which could be observed macroscopically and/or microscopically were considered sterile.
(§6) The results are recorded in Table 3 in terms of sterilization time expressed in minutes.

[2] = Acute oral toxicity in mice (Table 4); settings: mouse, in vivo, po
Experimental: (§7) The substances were administered orally to groups of 10 female mice CF1 of average weight of about 20 grams, in aqueous solution and in such way that the total volume administered would be in each case 1 ml/100 g of weight.

[3] = tested on: Trichophyton Mentagrophytes Ist. Pasteur; experiment: Speed of sterilising action, Trichophyton Mentagrophytes (Table 3); assay type: cell-based
Experimental: as §4, §5, §6

Diplococcus Pneum. ISM = experiment: M.I.C. in vitro, gram+ Diplococcus Pneum. (Table 1); assay type: cell-based
Experimental: as §1, §2, §3

Staph.Aureus Tour = experiment: M.I.C. in vitro, gram+ Staph. Aureus (Table 1); assay type: cell-based, Staphylococcus Aureus; settings: for MIC: Staphylococcus aureus
Experimental: as §1, §2, §3

[4] = tested on: Candida Albicans SKF 2270; experiment: Speed of sterilising action, Candida Albicans (Table 3); assay type: cell-based
Experimental: as §4, §5, §6

Pseudomonas Aeruginosa = experiment: Antibacterial activity in vivo with topical treatment (Table 5); design: species or system female CF1 albino mice; settings: for animals alive on the 15th day / animals dead on the 15th day: 10 animals; for % survivors: topical, 15th day
Experimental: After their backs have been shaved, female CF1 albino mice weighing 18-22 g are scorched (under ether anaesthetic) for 15 seconds with a pad of brass previously immersed in boiling water (7-8% of the body surface). After 90 minutes there is applied to the scorched area 0.1 ml of a suspension of Pseudomonas Aeruginosa bacteria having 15% transmittance at 650 nm. The bacterial strain in question produces a high incidence of mortality, induced by septicemic diffusion from the point of infection. After 90 minutes, with the aid of a glass rod suitably flattened at one end, the preparation containing a known concentration of the compound under examination is applied locally. The treatment is continued for a total of six days (once per day). On the fifteenth day the percentage of survivors to the tested doses in recorded.
The carrier used for applying the compounds under examination is an aqueous 0.75% solution of carboxymethyl-cellulose. The concentrations of the compounds tested are 2, 1, 0.5 and 0.25% by weight.

[5] = tested on: Escherichia Coli SKF 12140; experiment: Speed of sterilising action, Escherichia Coli (Table 3); assay type: cell-based
Experimental: as §4, §5, §6

[6] = tested on: Streptococ. Henclyt. 0203; experiment: M.I.C. in vitro, gram+ Streptococ. Henclyt. (Table 1); assay type: cell-based
Experimental: as §1, §2, §3

Klens. Pneum. ISM = experiment: M.I.C. in vitro, gram- Klens. Pneum. (Table 1); assay type: cell-based
Experimental: as §1, §2, §3

[7] = tested on: Trichomonas Vaginalis ISM 66/22; experiment: Speed of sterilising action, Trichomonas Vaginalis (Table 3); assay type: cell-based
Experimental: as §4, §5, §6

Candida albicans = experiment: Activity upon vaginal candidiasis in mice (Table 7); assay type: in vivo, female Swiss mice (Charles River CD1); settings: for no. of animals surviving: 8 animals
Experimental: The treatment groups consist each of 8 female Swiss mice (Charles River CD1) of average weight 20 g. The animals are infected with 0.025 ml of a 24 hour culture of Candida albicans, equal to 10^6 cellules.
0.025 ml of a suspension in lanoline of the compound to be tested, at the desired concentration, are applied locally twice a day for a week, the first treatment being started five hours after infection.
The control group is treated with the lanoline alone in the same way. On the eighth day vaginal washings are carried out with 0.025 ml of sterile physiological solution, and the liquid is sown in Petri dishes containing Bacto Biggy Agon Difco as a selective growing medium for the Candida.
After 48 hours of incubation of the dishes at 30° C. a count is taken of the colonies which have grown. Assessment of the activity is quantized using the indices listed here below:
The results are expressed as percentages of the average index of seriousness of the infection A.D.I. (Average Degree of Infection) in the animals treated with respect to the animals in the control group.
The substances under examination were tested at concentrations of 5 and 3% by weight.

Proteus Vulc. ATCC 881 = experiment: M.I.C. in vitro, gram- Proteus Vulc. (Table 1); assay type: cell-based
Experimental: as §1, §2, §3

[8] = tested on: Trichophyton Mentagrophytes; experiment: Topical activity upon dermatophytis from Trichophyton in cavies (Table 6); assay type: in vivo, Albino cavies
Experimental: Albino cavies of 250-300 g are infected, after depilation and scarification of a circular area of dorsal skin upon which there are supplied 0.1 ml of a suspension of microconidia of Trichophyton Mentagrophytes from the Pasteur Institute collection, obtained from a culture of 15 days upon Saboureaud agar. 24 Hours after infection topical treatment is started and is continued for two weeks (once per day).
The compounds to be tested are dissolved or suspended at the desired concentration, in a water-alcohol mixture (75/25 v/v) containing 0.75% by weight of carboxymethyl-cellulose (CMC). […] Each single application is carried out using 0.25 ml of the suspension or solution obtained as described above.
Fourteen days after infection the lesions are assessed. Assessment is carried out by attributing index numbers depending upon the seriousness of the lesions formed, as follows:
The substances under examination were tested at concentrations of 5 and 2.5% by weight.

Esch. Coli. SKF 12140 = experiment: M.I.C. in vitro, gram- Esch. Coli (Table 1); assay type: cell-based, Escherichia Coli; settings: for MIC: Escherichia coli
Experimental: as §1, §2, §3

[9] = tested on: Nicrosporum Canis ATCC 11621; experiment: MIC mildews, Microsporum canis (Table 2); assay type: cell-based; settings: Sabourand broth
Experimental: as §1, §2
(§8) Inoculation with Trichophyton mentagrophytes and Microsporum canis was effected in a ratio of 1% of the volume of medium used.
(§9) For the fungi Sabourand broth was used as a culture medium, whilst for the protozoa Kupferberg Trichomonas broth with 5% of horse serum was used.

[10] = tested on: Trych. Mentagr. 1st.Pastuer; experiment: MIC mildews, Trichophyton mentagrophytes (Table 2); assay type: cell-based; settings: Sabourand broth
Experimental: as §1, §2, §8, §9

mice = experiment: Acute oral toxicity in mice (Table 4); settings: oral, mice, 14 days; 20160 min
Experimental: as §7

Candida Albic. SKF 2270 = experiment: MIC yeasts, Candida albicans (Table 2); assay type: cell-based; settings: Sabourand broth
Experimental: as §1, §2
(§10) Inoculation with Candida albicans or Candida pseudotropicalis was made by diluting cultures grown for 24 h at 30° C. (cellular density inoculated 10^3 /ml).
as §9

[11] = tested on: Candida Pseudotrop. ATCC 2512; experiment: MIC yeasts, Candida pseudotropicalis (Table 2); assay type: cell-based; settings: Sabourand broth
Experimental: as §1, §2, §10, §9

[12] = tested on: Trich. Vaginalis ISM 66/22; experiment: MIC protozoa, Trichomonas vaginalis (Table 2); assay type: cell-based; settings: +10% serum (head); Kupferberg Trichomonas broth with 5% of horse serum
Experimental: as §1, §2
(§11) Inoculation with Trichomonas vaginalis and Trichomonas foetus, obtained from cultures transplanted every other day to make them lively, was effected in a ratio of 3.5% of the volume of medium used.
as §9

Trich. Foetus ISM 66/23 = experiment: MIC protozoa, Trichomonas foetus (Table 2); assay type: cell-based; settings: +10% serum (head); Kupferberg Trichomonas broth with 5% of horse serum
Experimental: as §1, §2, §11, §9

SMILES: CCCCCCCCCCCCCCCC[n+]1ccccc1 [Cetyl pyridine chloride, cetyl pyridine chloride, reference compound]
- MIC (Pseudom.Aer. ATCC 1014; ATCC1014, +10% serum): > 200 µg/mL
- MIC (Pseudom.Aer. ATCC 1014; ATCC1014, without serum): 200 µg/mL
- sterilization time ([1]; 0.1 g/l): 7.5 min
- sterilization time ([1]; 0.25 g/l): 2.5 min
- sterilization time ([1]; 0.5 g/l): 1 min
- sterilization time ([1]; 1 g/l): 1 min
- LD50 at 336 h [2]: 275 mg/kg
- sterilization time ([3]; 0.1 g/l): 60 min
- sterilization time ([3]; 0.25 g/l): 60 min
- sterilization time ([3]; 0.5 g/l): 30 min
- sterilization time ([3]; 1 g/l): 5 min
- MIC (Diplococcus Pneum. ISM; +10% serum): 10 µg/mL
- MIC (Diplococcus Pneum. ISM; without serum): 1 µg/mL
- MIC (Staph.Aureus Tour; +10% serum): 10 µg/mL
- MIC (Staph.Aureus Tour; without serum): 0.1 µg/mL
- sterilization time ([4]; 0.1 g/l): 60 min
- sterilization time ([4]; 0.25 g/l): 10 min
- sterilization time ([4]; 0.5 g/l): 10 min
- sterilization time ([4]; 1 g/l): 10 min
- animals alive on the 15th day (Pseudomonas Aeruginosa; 0.25% by weight): 1
- animals dead on the 15th day (Pseudomonas Aeruginosa; 0.25% by weight): 9
- % survivors (Pseudomonas Aeruginosa; 0.25% by weight): 10%
- animals alive on the 15th day (Pseudomonas Aeruginosa; 0.5% by weight): 3
- animals dead on the 15th day (Pseudomonas Aeruginosa; 0.5% by weight): 7
- % survivors (Pseudomonas Aeruginosa; 0.5% by weight): 30%
- animals alive on the 15th day (Pseudomonas Aeruginosa; 1% by weight): 2
- animals dead on the 15th day (Pseudomonas Aeruginosa; 1% by weight): 8
- % survivors (Pseudomonas Aeruginosa; 1% by weight): 20%
- animals alive on the 15th day (Pseudomonas Aeruginosa; 2% by weight): 4
- animals dead on the 15th day (Pseudomonas Aeruginosa; 2% by weight): 6
- % survivors (Pseudomonas Aeruginosa; 2% by weight): 40%
- sterilization time ([5]; 0.1 g/l): > 60 min
- sterilization time ([5]; 0.25 g/l): > 60 min
- sterilization time ([5]; 0.5 g/l): > 60 min
- sterilization time ([5]; 1 g/l): > 60 min
- MIC ([6]; +10% serum): 5 µg/mL
- MIC ([6]; without serum): 0.5 µg/mL
- MIC (Klens. Pneum. ISM; +10% serum): > 100 µg/mL
- MIC (Klens. Pneum. ISM; without serum): 5 µg/mL
- sterilization time ([7]; 0.1 g/l): 5 min
- sterilization time ([7]; 0.25 g/l): 2.5 min
- sterilization time ([7]; 0.5 g/l): 1 min
- sterilization time ([7]; 1 g/l): 1 min
- % of healing (100-A.D.I. %) (Candida albicans; 3% by weight): 15.97%
- A.D.I. (compared with controls) (Candida albicans; 3% by weight): 84.03%
- no. of animals surviving (Candida albicans; 3% by weight): 6
- no. of animals surviving (Candida albicans; 5% by weight): 2
- death of treated animals (Candida albicans; highest dose, before the end of the experiment): 75%
- mortality (Candida albicans; lower dose): 25%
- MIC (Proteus Vulc. ATCC 881; +10% serum): > 100 µg/mL
- MIC (Proteus Vulc. ATCC 881; without serum): 20 µg/mL
- A.D.I. (% of control group) ([8]; 2.5% by weight): 81.27%
- healing % (100-A.D.I. %) ([8]; 2.5% by weight): 18.73%
- A.D.I. (% of control group) ([8]; 5% by weight): 49.81%
- healing % (100-A.D.I. %) ([8]; 5% by weight): 50.19%
- evaluation of seriousness of infection (A.D.I.) ([8]; 5% by weight, average index): 1.33
- MIC (Esch. Coli. SKF 12140; +10% serum): > 100 µg/mL
- MIC (Esch. Coli. SKF 12140; without serum): 5 µg/mL

SMILES: CCCCCCCCCC[N+](CC)(CC)CCNC(=O)C12CC3CC(CC(C3)C1)C2 [Example 10, n-Decyl-diethyl-(1-adamantane-carbonylamido)-ethyl-ammonium chloride]
- MIC ([9]; +10% serum): 50 µg/mL
- MIC ([9]; without serum): 0.5 µg/mL
- M.I.C. (Pseudom.Aer. ATCC 1014; +10% serum): > 100 µg/mL
- M.I.C. (Pseudom.Aer. ATCC 1014; without serum): 50 µg/mL
- MIC ([10]; +10% serum): 50 µg/mL
- MIC ([10]; without serum): 0.5 µg/mL
- LD50 (mice): 1050 mg/kg
- MIC (Candida Albic. SKF 2270; +10% serum): 50 µg/mL
- MIC (Candida Albic. SKF 2270; without serum): 0.5 µg/mL
- M.I.C. (Diplococcus Pneum. ISM; +10% serum): 10 µg/mL
- M.I.C. (Diplococcus Pneum. ISM; without serum): 2 µg/mL
- M.I.C. (Staph.Aureus Tour; +10% serum): 10 µg/mL
- M.I.C. (Staph.Aureus Tour; without serum): 0.2 µg/mL
- MIC ([11]; +10% serum): 50 µg/mL
- MIC ([11]; without serum): 2 µg/mL
- MIC [12]: 10 µg/mL
- MIC (Trich. Foetus ISM 66/23): 5 µg/mL
- M.I.C. ([6]; +10% serum): 5 µg/mL
- M.I.C. ([6]; without serum): 0.5 µg/mL
- M.I.C. (Klens. Pneum. ISM; +10% serum): 100 µg/mL
- M.I.C. (Klens. Pneum. ISM; without serum): 10 µg/mL
- M.I.C. (Proteus Vulc. ATCC 881; +10% serum): 100 µg/mL
- M.I.C. (Proteus Vulc. ATCC 881; without serum): 10 µg/mL
- M.I.C. (Esch. Coli. SKF 12140; +10% serum): 100 µg/mL
- M.I.C. (Esch. Coli. SKF 12140; without serum): 10 µg/mL
